Experimental data taken from patent US20230416330A1, “Optimized GIP Peptide Analogues” (Antag Therapeutics ApS, priority 2019, published 2023).
Starred links: 1 amine or outer side, 2 acyl side, 3 side chain; linkers in the order of their positions; H or OH if unused. Non-standard residues stand in square brackets, D forms with d. Residues, ends and D or L forms follow the SMILES beside them. Groups on a side chain read outwards from the residue. *: point of attachment. C18 diacid = O=C(O)CCCCCCCCCCCCCCCCC(=O)*; C16 diacid = O=C(O)CCCCCCCCCCCCCCC(=O)*; γGlu = O=C(O)[C@H](CCC(=O)[*:2])N[*:1]; Glutaryl = O=C(CCCC(=O)[*:2])[*:1]; AEEA = NCCOCCOCC(=O)O; Aib = CC(C)(N)C(=O)O

How the values were obtained:
[1] = Physical stability: fibril formation in Thioflavin T (ThT) assay with agitation; format: physicochemical
Procedure: Continuous measurement of the fluorescence emission at 486 nm can be used as a measure of fibrillation behavior of peptides and proteins. The time until onset of fibrillation or fibrillation lag time is estimated here by defining the lag time (Tlag) as the point in time where the signal relative to the pre-transition baseline has reached 10% of the post-transition baseline.
50 mM sodium phosphate buffer for dissolving some samples was prepared in ultrapure water (Milli-Q® Reference A+ System, Merck) with a resistivity of 18.2 MΩ·cm. The buffer was adjusted to pH 7.4 and filtered.
The ultrapure water (MilliQ) for dissolving some samples was adjusted to pH 7.4 with NaOH and filtered prior to sample preparation.
(§1) Peptides were either dissolved in sodium phosphate buffer (50 mM, pH 7.4, filtered) or dissolved in ultrapure (MilliQ) water (adjusted to pH 7.4 with NaOH, filtered) (see Table 3). All peptide samples were prepared to a concentration of 1, 5, 7.5 or 15 mg/ml. All samples, with the exception of reference peptides GIP(3-30), AT158, and AT482 dissolved readily and produced clear and colorless solutions with gentle mixing. Peptide samples were subsequently filtered through 0.22 μm nylon filters (Q-Max® RR syringe filter, 13 mm, Frisenette, DK) to produce particle-free solutions. All samples were added to a 96-well plate reader for the ThT assay at t=0.
For each sample, […] ThT (1 mM) was added to 1.2 mL peptide solution. From this sample mixture, an amount of 200 uL/well was pipetted into four or five wells (n=4 or 5). Blank samples (buffer+ThT) were also included. One 3 mm silica bead was added to each well containing samples and the plate was subjected to orbital rotation at 300 rpm to agitate and stress the samples. The temperature was kept at 25° C. throughout the measurement.

[2] = Solubility by visual inspection of peptide solutions; format: physicochemical
Procedure: as §1
Clear visual appearance may be taken as an indicator of the immediate solubility of the peptide. […] Thus, A13Aib and/or N24E substitutions appear to increase solubility.

[3] = 1 mg/ml, TFA, Phosphate (7.4), 25° C., agitation

SMILES | Avr lag time (h) [1, 3] | Visual appearance ([2]; 1 mg/ml, TFA, Phosphate (7.4)) | also measured
CC[C@H](C)[C@H](NC(=O)[C@H](CO)NC(=O)[C@H](Cc1ccc(O)cc1)NC(=O)[C@H](CC(=O)O)NC(=O)[C@H](CO)NC(=O)[C@@H](NC(=O)[C@H](Cc1ccccc1)NC(=O)[C@@H](NC(=O)CNC(=O)[C@@H](N)CCC(=O)O)[C@@H](C)O)[C@@H](C)CC)C(=O)N[C@@H](C)C(=O)N[C@@H](CCSC)C(=O)N[C@@H](CC(=O)O)C(=O)N[C@@H](CCCCN)C(=O)N[C@H](C(=O)N[C@@H](Cc1c[nH]cn1)C(=O)N[C@@H](CCC(N)=O)C(=O)N[C@@H](CCC(N)=O)C(=O)N[C@@H](CC(=O)O)C(=O)N[C@@H](Cc1ccccc1)C(=O)N[C@H](C(=O)N[C@@H](CCC(=O)O)C(=O)N[C@@H](Cc1c[nH]c2ccccc12)C(=O)N[C@@H](CC(C)C)C(=O)N[C@@H](CC(C)C)C(=O)N[C@@H](C)C(=O)N[C@@H](CCC(N)=O)C(=O)N[C@@H](CCCCN)C(=O)N1CCC[C@H]1C(=O)N[C@@H](CO)C(=O)N[C@@H](CO)C(=O)NCC(=O)N[C@@H](C)C(=O)N1CCC[C@H]1C(=O)N1CCC[C@H]1C(=O)N1CCC[C@H]1C(=O)N[C@@H](CO)C(=O)N[C@@H](CCCCNC(=O)CCCCCCCCCCCCCCC(=O)O)C(=O)O)C(C)C)[C@@H](C)CC [AT744] (H-EGTFISDYSIAMDKIHQQDFVEWLLAQKPSSGAPPPSK(C16 diacid)-OH; N-terminus assumed) | fnd (Fnd = fibrils not detected within experiment time (96 hours) with agitation.) | Clear | –
CC[C@H](C)[C@H](NC(=O)[C@H](CCCCN)NC(=O)[C@H](CC(=O)O)NC(=O)[C@H](CCSC)NC(=O)C(C)(C)NC(=O)[C@@H](NC(=O)[C@H](CO)NC(=O)[C@H](Cc1ccc(O)cc1)NC(=O)[C@H](CC(=O)O)NC(=O)[C@H](CO)NC(=O)[C@@H](NC(=O)[C@H](Cc1ccccc1)NC(=O)[C@@H](NC(=O)CNC(=O)CCCC(=O)O)[C@@H](C)O)[C@@H](C)CC)[C@@H](C)CC)C(=O)N[C@@H](CCCCNC(=O)CCCCCCCCCCCCCCC(=O)O)C(=O)N[C@@H](CCC(N)=O)C(=O)N[C@@H](CCC(N)=O)C(=O)N[C@@H](CC(=O)O)C(=O)N[C@@H](Cc1ccccc1)C(=O)N[C@H](C(=O)N[C@@H](CC(N)=O)C(=O)N[C@@H](Cc1c[nH]c2ccccc12)C(=O)N[C@@H](CC(C)C)C(=O)N[C@@H](CC(C)C)C(=O)N[C@@H](C)C(=O)N[C@@H](CCC(N)=O)C(=O)N[C@@H](CCCCN)C(=O)N1CCC[C@H]1C(=O)N[C@@H](CO)C(=O)N[C@@H](CO)C(=O)NCC(=O)N[C@@H](C)C(=O)N1CCC[C@H]1C(=O)N1CCC[C@H]1C(=O)N1CCC[C@H]1C(=O)N[C@@H](CO)C(=O)O)C(C)C [AT763] (Glutaryl-GTFISDYSI[Aib]MDKIK(C16 diacid)QQDFVNWLLAQKPSSGAPPPS-OH) | fnd (Fnd = fibrils not detected within experiment time (96 hours) with agitation.) | Clear | Avr lag time (h) ([1]; 5 mg/ml, TFA, MilliQ, 25° C., agitation): fnd (Fnd = fibrils not detected within experiment time (96 hours) with agitation.); Avr lag time (h) ([1]; 5 mg/ml, TFA, Phosphate, 25° C., agitation): fnd (Fnd = fibrils not detected within experiment time (96 hours) with agitation.); Fibril formation (FIG. 1) ([1]; in phosphate buffer, about 94 h, orbital rotation): does not form fibrils; Visual appearance ([2]; 5 mg/ml, TFA, MilliQ): Clear; Visual appearance ([2]; 5 mg/ml, TFA, Phosphate): Clear
CC[C@H](C)[C@H](NC(=O)[C@H](CCCCN)NC(=O)[C@H](CCC(=O)O)NC(=O)[C@H](CC(C)C)NC(=O)C(C)(C)NC(=O)[C@@H](NC(=O)[C@H](CO)NC(=O)[C@H](Cc1ccc(O)cc1)NC(=O)[C@H](CCC(=O)O)NC(=O)[C@H](CO)NC(=O)[C@@H](NC(=O)[C@H](Cc1ccccc1)NC(=O)[C@@H](NC(=O)CNC(=O)CCCC(=O)O)[C@@H](C)O)[C@@H](C)CC)[C@@H](C)CC)C(=O)N[C@@H](CCCCNC(=O)CCCCCCCCCCCCCCC(=O)O)C(=O)N[C@@H](CCC(N)=O)C(=O)N[C@@H](CCC(N)=O)C(=O)N[C@@H](CCC(=O)O)C(=O)N[C@@H](Cc1ccccc1)C(=O)N[C@H](C(=O)N[C@@H](CCC(=O)O)C(=O)N[C@@H](Cc1c[nH]c2ccccc12)C(=O)N[C@@H](CC(C)C)C(=O)N[C@@H](CC(C)C)C(=O)N[C@@H](C)C(=O)N[C@@H](CCC(N)=O)C(=O)N[C@@H](CCCCN)C(=O)N1CCC[C@H]1C(=O)N[C@@H](CO)C(=O)N[C@@H](CO)C(=O)NCC(=O)N[C@@H](C)C(=O)N1CCC[C@H]1C(=O)N1CCC[C@H]1C(=O)N1CCC[C@H]1C(=O)N[C@@H](CO)C(=O)O)C(C)C [AT717] (Glutaryl-GTFISEYSI[Aib]LEKIK(C16 diacid)QQEFVEWLLAQKPSSGAPPPS-OH) | fnd (Fnd = fibrils not detected within experiment time (96 hours) with agitation.) | Clear | Avr lag time (h) ([1]; 7.5 mg/ml, Na, MilliQ (8), 25° C., agitation): fnd (Fnd = fibrils not detected within experiment time (96 hours) with agitation.); Avr lag time (h) ([1]; 15 mg/ml, Na, MilliQ (8), 25° C., agitation): fnd (Fnd = fibrils not detected within experiment time (96 hours) with agitation.); Visual appearance ([2]; 7.5 mg/ml, Na, MilliQ (8)): Clear; Visual appearance ([2]; 15 mg/ml, Na, MilliQ (8)): Clear
CC[C@H](C)[C@H](NC(=O)[C@H](CO)NC(=O)[C@H](Cc1ccc(O)cc1)NC(=O)[C@H](CC(=O)O)NC(=O)[C@H](CO)NC(=O)[C@@H](NC(=O)[C@H](Cc1ccccc1)NC(=O)[C@@H](NC(=O)CNC(=O)[C@@H](N)CCC(=O)O)[C@@H](C)O)[C@@H](C)CC)C(=O)N[C@@H](C)C(=O)N[C@@H](CCSC)C(=O)N[C@@H](CC(=O)O)C(=O)N[C@@H](CCCCN)C(=O)N[C@H](C(=O)N[C@@H](CCCCNC(=O)CCCCCCCCCCCCCCC(=O)O)C(=O)N[C@@H](CCC(N)=O)C(=O)N[C@@H](CCC(N)=O)C(=O)N[C@@H](CC(=O)O)C(=O)N[C@@H](Cc1ccccc1)C(=O)N[C@H](C(=O)N[C@@H](CC(N)=O)C(=O)N[C@@H](Cc1c[nH]c2ccccc12)C(=O)N[C@@H](CC(C)C)C(=O)N[C@@H](CC(C)C)C(=O)N[C@@H](C)C(=O)N[C@@H](CCC(N)=O)C(=O)N[C@@H](CCCCN)C(=O)O)C(C)C)[C@@H](C)CC [AT719] (H-EGTFISDYSIAMDKIK(C16 diacid)QQDFVNWLLAQK-OH; N-terminus assumed) | – | Clear | Avr lag time [1, 3]: <8 h
CC[C@H](C)[C@H](NC(=O)[C@H](CCCCN)NC(=O)[C@H](CC(=O)O)NC(=O)[C@H](CC(C)C)NC(=O)C(C)(C)NC(=O)[C@@H](NC(=O)[C@H](CO)NC(=O)[C@H](Cc1ccc(O)cc1)NC(=O)[C@H](CCC(=O)O)NC(=O)[C@H](CO)NC(=O)[C@@H](NC(=O)[C@H](Cc1ccccc1)NC(=O)[C@@H](NC(=O)CNC(=O)[C@@H](N)CCC(=O)O)[C@@H](C)O)[C@@H](C)CC)[C@@H](C)CC)C(=O)N[C@@H](CCCCNC(=O)COCCOCCNC(=O)COCCOCCNC(=O)CC[C@H](NC(=O)CCCCCCCCCCCCCCCCC(=O)O)C(=O)O)C(=O)N[C@@H](CCC(N)=O)C(=O)N[C@@H](CCC(N)=O)C(=O)N[C@@H](CC(=O)O)C(=O)N[C@@H](Cc1ccccc1)C(=O)N[C@H](C(=O)N[C@@H](CCC(=O)O)C(=O)N[C@@H](Cc1c[nH]c2ccccc12)C(=O)N[C@@H](CC(C)C)C(=O)N[C@@H](CC(C)C)C(=O)N[C@@H](C)C(=O)N[C@@H](CCC(N)=O)C(=O)N[C@@H](CCCCN)C(=O)N1CCC[C@H]1C(=O)N[C@@H](CO)C(=O)N[C@@H](CO)C(=O)NCC(=O)N[C@@H](C)C(=O)N1CCC[C@H]1C(=O)N1CCC[C@H]1C(=O)N1CCC[C@H]1C(=O)N[C@@H](CO)C(=O)O)C(C)C [AT712] (H-EGTFISEYSI[Aib]LDKIK([AEEA-AEEA-γGlu-C18 diacid])QQDFVEWLLAQKPSSGAPPPS-OH; N-terminus assumed) | fnd (Fnd = fibrils not detected within experiment time (96 hours) with agitation.) | Clear | –
CC[C@H](C)[C@H](NC(=O)[C@H](C)NC(=O)[C@H](Cc1ccc(O)cc1)NC(=O)[C@H](CC(=O)O)NC(=O)[C@H](CO)NC(=O)[C@@H](NC(=O)[C@H](Cc1ccccc1)NC(=O)[C@@H](NC(=O)CNC(=O)[C@@H](N)CCC(=O)O)[C@@H](C)O)[C@@H](C)CC)C(=O)N[C@@H](C)C(=O)N[C@@H](CCSC)C(=O)N[C@@H](CC(=O)O)C(=O)N[C@@H](CCCCN)C(=O)N[C@H](C(=O)N[C@@H](CCCCNC(=O)CCCCCCCCCCCCCCC(=O)O)C(=O)N[C@@H](CCC(N)=O)C(=O)N[C@@H](CCC(N)=O)C(=O)N[C@@H](CC(=O)O)C(=O)N[C@@H](Cc1ccccc1)C(=O)N[C@H](C(=O)N[C@@H](CCC(=O)O)C(=O)N[C@@H](Cc1c[nH]c2ccccc12)C(=O)N[C@@H](CC(C)C)C(=O)N[C@@H](CC(C)C)C(=O)N[C@@H](C)C(=O)N[C@@H](CCC(N)=O)C(=O)N[C@@H](CCCCN)C(=O)N1CCC[C@H]1C(=O)N[C@@H](CO)C(=O)N[C@@H](CO)C(=O)NCC(=O)N[C@@H](C)C(=O)N1CCC[C@H]1C(=O)N1CCC[C@H]1C(=O)N1CCC[C@H]1C(=O)N[C@@H](CO)C(=O)O)C(C)C)[C@@H](C)CC [AT746] (H-EGTFISDYAIAMDKIK(C16 diacid)QQDFVEWLLAQKPSSGAPPPS-OH; N-terminus assumed) | fnd (Fnd = fibrils not detected within experiment time (96 hours) with agitation.) | Clear | –
